Assay results published in ChEMBL document CHEMBL5120828, “Identification and optimisation of a pyrimidopyridone series of IRAK4 inhibitors” (Bioorg Med Chem, 2022).
Converted amounts (≈) assume the structure as drawn.

Legend:
[1] = biological target: T1, Interleukin-1 receptor-associated kinase 4 (Homo sapiens, UniProt Q9NWZ3); assay: Inhibition of human recombinant IRAK4 assessed as unphosphorylated KKARFSRFAGSSPSQSSMVAR peptide substrate measured after 2 hrs by LC-MS/MS analysis
T1 sequence (Q9NWZ3 whole entry): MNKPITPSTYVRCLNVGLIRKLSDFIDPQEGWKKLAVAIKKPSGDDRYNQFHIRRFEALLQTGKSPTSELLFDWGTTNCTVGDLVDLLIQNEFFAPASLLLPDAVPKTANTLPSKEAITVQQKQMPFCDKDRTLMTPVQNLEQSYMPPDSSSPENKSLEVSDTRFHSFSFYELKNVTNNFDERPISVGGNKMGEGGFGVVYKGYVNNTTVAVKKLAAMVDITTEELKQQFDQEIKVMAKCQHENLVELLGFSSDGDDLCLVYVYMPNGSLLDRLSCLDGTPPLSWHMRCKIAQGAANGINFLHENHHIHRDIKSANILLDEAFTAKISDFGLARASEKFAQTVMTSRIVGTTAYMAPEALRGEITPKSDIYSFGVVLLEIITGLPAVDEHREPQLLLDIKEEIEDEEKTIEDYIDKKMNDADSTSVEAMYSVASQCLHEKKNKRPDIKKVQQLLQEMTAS

[2] = biological target: T1, Interleukin-1 receptor-associated kinase 4; assay: Inhibition of IRAK4 in IL1-stimulated human KARPAS-299 cells assessed as fluorescence intensity; format: cell-based
[3] = Octanol/water partition coefficient, logP of compound at pH 7.4 by shake-flask method; format: physicochemical
[4] = Metabolic stability in human liver microsomes assessed as intrinsic clearance; format: ADME
[5] = Intrinsic permeability across apical to basolateral side in human Caco-2 cells; format: ADME, cell-based
[6] = Efflux ratio of permeability in human Caco-2 cells; format: ADME, cell-based
[7] = Aqueous solubility of compound; format: physicochemical; conditions: buffer
[8] = Fraction unbound in human plasma; format: ADME, cell-free
[9] = biological target: Voltage-gated inwardly rectifying potassium channel KCNH2 (Homo sapiens, UniProt Q12809); assay: Inhibition of human ERG channel; format: toxicity
Voltage-gated inwardly rectifying potassium channel KCNH2, sequence (Q12809 whole entry): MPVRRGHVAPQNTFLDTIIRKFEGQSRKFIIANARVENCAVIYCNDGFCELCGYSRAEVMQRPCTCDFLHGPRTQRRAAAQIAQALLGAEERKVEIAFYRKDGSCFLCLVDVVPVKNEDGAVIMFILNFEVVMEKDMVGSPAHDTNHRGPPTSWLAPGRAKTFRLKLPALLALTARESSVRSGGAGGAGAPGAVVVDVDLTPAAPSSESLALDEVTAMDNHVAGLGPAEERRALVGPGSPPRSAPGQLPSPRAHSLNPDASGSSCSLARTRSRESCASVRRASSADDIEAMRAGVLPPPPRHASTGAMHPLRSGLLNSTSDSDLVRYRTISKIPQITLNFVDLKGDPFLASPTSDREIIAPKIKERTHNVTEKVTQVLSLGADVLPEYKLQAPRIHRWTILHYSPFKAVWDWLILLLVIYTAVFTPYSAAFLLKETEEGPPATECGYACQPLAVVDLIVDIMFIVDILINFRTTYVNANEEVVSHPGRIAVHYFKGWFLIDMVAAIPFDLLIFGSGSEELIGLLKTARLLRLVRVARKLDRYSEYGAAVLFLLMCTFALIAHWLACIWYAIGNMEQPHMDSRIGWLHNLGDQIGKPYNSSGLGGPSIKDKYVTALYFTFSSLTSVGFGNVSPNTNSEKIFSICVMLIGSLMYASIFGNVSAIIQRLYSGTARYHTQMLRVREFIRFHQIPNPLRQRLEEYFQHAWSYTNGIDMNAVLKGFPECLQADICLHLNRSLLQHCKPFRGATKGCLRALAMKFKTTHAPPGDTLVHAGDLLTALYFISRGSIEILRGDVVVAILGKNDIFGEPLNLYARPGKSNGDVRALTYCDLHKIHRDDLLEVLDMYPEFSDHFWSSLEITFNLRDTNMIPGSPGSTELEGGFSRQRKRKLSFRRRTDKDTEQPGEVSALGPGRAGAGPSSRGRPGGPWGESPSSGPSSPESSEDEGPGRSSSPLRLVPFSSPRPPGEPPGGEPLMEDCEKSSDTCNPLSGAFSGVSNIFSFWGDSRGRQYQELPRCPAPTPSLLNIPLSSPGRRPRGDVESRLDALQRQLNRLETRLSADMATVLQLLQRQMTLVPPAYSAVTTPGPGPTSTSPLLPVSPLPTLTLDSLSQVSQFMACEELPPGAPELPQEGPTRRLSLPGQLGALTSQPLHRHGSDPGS

Row | Compound | IC50 [1] | IC50 [2] | logD [3] | CLint [4] | Papp A→B [5] | efflux ratio [6] | solubility [7] | fraction unbound [8] | IC50 [9]
1 | CN1CCC(n2cc(Nc3nc(NC4(C)CC4)c4c(=O)n(-c5cnn[nH]5)ccc4n3)cn2)CC1 | 0.001 µM | 0.069 µM | 2.5 | 20 µL/min/mg | 3.3 ×10⁻⁶ cm/s | 28 | – | – | –
2 | CN1C[C@H]2C[C@@H]1C[C@@H]2n1cc(Nc2nc(NC3(C)CC3)c3c(=O)n(C)ccc3n2)cn1 | 0.016 µM | 0.32 µM | 1.2 | 14 µL/min/mg | – | – | – | – | –
3 | C[C@H](F)Cn1ccc2nc(Nc3cnn([C@H]4C[C@H]5C[C@@H]4CN5C)c3)nc(NC3(C)CC3)c2c1=O | 0.003 µM | 0.079 µM | 2 | 12 µL/min/mg | – | – | – | – | –
4 | CN1CC(n2cc(Nc3nc(NC4(C)CC4)c4c(=O)n(C)ccc4n3)cn2)CCC1=O (centres undefined) | 0.002 µM | 0.075 µM | 2.4 | 89 µL/min/mg | – | – | – | – | –
5 | CC(=O)N1CCC(n2cc(Nc3nc(NC4(C)CC4)c4c(=O)n(C)ccc4n3)cn2)CC1 | 0.002 µM | 0.049 µM | 2.5 | 83 µL/min/mg | 48 ×10⁻⁶ cm/s | 6 | – | – | –
6 | CN1C[C@@H]2C[C@H]1C[C@@H]2n1cc(Nc2nc(NC3(C)CC3)c3c(=O)n(C)ccc3n2)cn1 | 0.003 µM | 0.09 µM | 1.4 | 17 µL/min/mg | – | – | – | – | –
7 | C[C@@H]1C[C@@H](n2cc(Nc3nc(NC4(C)CC4)c4c(=O)n(C)ccc4n3)cn2)CCN1C (racemic) | < 0.001 µM | 0.05 µM | 2.2 | 88 µL/min/mg | – | – | – | – | –
8 | CN1CCC(n2cc(Nc3nc(NC4(C)CC4)c4c(=O)n(-c5cncnc5)ccc4n3)cn2)CC1 | 0.004 µM | 0.072 µM | 2.3 | 38 µL/min/mg | – | 5 | – | – | –
9 | COC(=O)N1CCN([C@H]2CC[C@H](Nc3nc(Nc4cnn(C)c4)nc4ccn(CC#N)c(=O)c34)CC2)CC1 | 0.023 µM | 0.44 µM | 2.3 | 25 µL/min/mg | – | – | – | – | –
10 | CN1CCC(n2cc(Nc3nc(NC4(C)CC4)c4c(=O)n(-c5nnc[nH]5)ccc4n3)cn2)CC1 | 0.011 µM | 0.32 µM | 1.8 | 4.7 µL/min/mg | 16 ×10⁻⁶ cm/s | 4.5 | – | – | –
11 | CN1CCC(n2cc(Nc3nc(NC4(C)CC4)c4c(=O)n(CC(F)F)ccc4n3)cn2)CC1 | 0.002 µM | 0.083 µM | 2.9 | 50 µL/min/mg | – | – | – | – | –
12 | CN1CCC(n2cc(Nc3nc(NC4(C)CC4)c4c(=O)n(-c5cn(C)nn5)ccc4n3)cn2)CC1 | 0.006 µM | 0.18 µM | 2.5 | 49 µL/min/mg | 21 ×10⁻⁶ cm/s | 2 | – | – | –
13 | CN1CC2(CC(n3cc(Nc4nc(NC5(C)CC5)c5c(=O)n(C)ccc5n4)cn3)C2)C1 | 0.001 µM | 0.033 µM | 1.4 | 9.7 µL/min/mg | 5.7 ×10⁻⁶ cm/s | 15 | – | – | –
14 | CN1CC[C@H](n2cc(Nc3nc(NC4(C)CC4)c4c(=O)n(C)ccc4n3)cn2)[C@H](F)C1 (racemic) | 0.0006 µM | 0.01 µM | 2.7 | 61 µL/min/mg | – | – | – | – | –
15 | CN1CCC(n2cc(Nc3nc(NC4(C)CC4)c4c(=O)n(C)ccc4n3)cn2)CC1 | 0.001 µM | 0.039 µM | 2.4 | 25 µL/min/mg | 17 ×10⁻⁶ cm/s | 3.1 | – | – | –
16 | C[C@@H](CF)n1ccc2nc(Nc3cnn(C4CCN(C)CC4)c3)nc(NC3(C)CC3)c2c1=O | 0.004 µM | 0.15 µM | 3 | 51 µL/min/mg | – | – | – | – | –
17 | CN1CC[C@H](n2cc(Nc3nc(NC4(C)CC4)c4c(=O)n(C)ccc4n3)cn2)[C@@H](F)C1 (racemic) | 0.001 µM | 0.045 µM | 3.2 | 98 µL/min/mg | – | – | – | – | –

Row | Compound | IC50 [1] | IC50 [2] | logD [3] | CLint [4] | Papp A→B [5] | efflux ratio [6] | solubility [7] | fraction unbound [8] | IC50 [9]
18 | CN1CCC(n2cc(Nc3nc(NC4(C)CC4)c4c(=O)n(C(F)F)ccc4n3)cn2)CC1 | 0.003 µM | 0.17 µM | 3.3 | 31 µL/min/mg | – | – | – | – | –
19 | C[C@H](F)Cn1ccc2nc(Nc3cnn(C4CCN(C)CC4)c3)nc(NC3(C)CC3)c2c1=O | 0.002 µM | 0.056 µM | 2.9 | 47 µL/min/mg | – | – | – | – | –
20 | Cn1cc(Nc2nc(NC3(C)CC3)c3nc(CC#N)ccc3n2)cn1 | – | – | 2.7 | 82 µL/min/mg | – | – | – | – | –
21 | CN(C)CC(=O)N1CCC(n2cc(Nc3nc(NC4(C)CC4)c4c(=O)n(C)ccc4n3)cn2)CC1 | 0.001 µM | 0.016 µM | 1.7 | 40 µL/min/mg | 4.3 ×10⁻⁶ cm/s | 37 | – | – | –
22 | C[C@H](CF)n1ccc2nc(Nc3cnn(C4CCN(C)CC4)c3)nc(NC3(C)CC3)c2c1=O | 0.005 µM | 0.17 µM | 2.8 | 47 µL/min/mg | – | – | – | – | –
23 | CN(C)C(=O)CN1CCC(n2cc(Nc3nc(NC4(C)CC4)c4c(=O)n(C)ccc4n3)cn2)CC1 | 0.0008 µM | 0.046 µM | 2.4 | 57 µL/min/mg | 15 ×10⁻⁶ cm/s | 8.8 | – | – | –
24 | Cn1cc(Nc2nc(NC3(C)CC3)c3c(=O)n(C)ccc3n2)cn1 | 0.008 µM | 0.19 µM | 2.9 | 13 µL/min/mg | 67 ×10⁻⁶ cm/s | 0.75 | – | – | –
25 | CN1CC2(CC(n3cc(Nc4nc(NC5(C)CC5)c5c(=O)n(-c6cn(C)nn6)ccc5n4)cn3)C2)C1 | 0.015 µM | 0.5 µM | 1.7 | < 3 µL/min/mg | – | – | – | – | –
26 | C[C@H]1C[C@@H](n2cc(Nc3nc(NC4(C)CC4)c4c(=O)n(C)ccc4n3)cn2)CCN1C (relative stereo) | 0.0006 µM | 0.018 µM | 2.7 | 31 µL/min/mg | – | – | – | – | –
27 | CN1CCC(n2cc(Nc3nc(NC4(C)CC4)c4c(=O)n(C5CC5)ccc4n3)cn2)CC1 | 0.004 µM | 0.074 µM | 2.5 | 25 µL/min/mg | – | – | – | – | –
28 | CN1C[C@H]2C[C@@H]1C[C@@H]2n1cc(Nc2nc(NC3(C)CC3)c3c(=O)n(CC(F)F)ccc3n2)cn1 | 0.004 µM | 0.15 µM | 1.9 | 23 µL/min/mg | – | – | – | – | –
29 | C[C@@H](F)Cn1ccc2nc(Nc3cnn(C4CCN(C)CC4)c3)nc(NC3(C)CC3)c2c1=O | 0.021 µM | 0.11 µM | 2.9 | 41 µL/min/mg | – | – | – | – | –
30 | CN1CC2(CC(n3cc(Nc4nc(NC5(C)CC5)c5c(=O)n(CC(F)F)ccc5n4)cn3)C2)C1 | 0.004 µM | 0.09 µM | 2 | 9.6 µL/min/mg | 12 ×10⁻⁶ cm/s | 7.1 | – | – | –
31 | COC(=O)N1CCN([C@H]2CC[C@H](Nc3nc(Nc4cnn(C)c4)nc4ccn(C)c(=O)c34)CC2)CC1 | 0.005 µM | 0.15 µM | 2.4 | 22 µL/min/mg | 17 ×10⁻⁶ cm/s | 3 | – | – | –
32 | C[C@H](F)Cn1ccc2nc(Nc3cnn(C4CC5(C4)CN(C)C5)c3)nc(NC3(C)CC3)c2c1=O | 0.002 µM | 0.12 µM | 2.1 | 10 µL/min/mg | 17 ×10⁻⁶ cm/s | 6.1 | 890 µM (≈ 415 µg/mL) | 0.17 | 4.2 µM
33 | COC(=O)N1CCN([C@H]2CC[C@H](Nc3nc(Nc4cnn(C)c4)nc4ccc(C)nc34)CC2)CC1 | 0.005 µM | 0.18 µM | 2.6 | 37 µL/min/mg | 7.9 ×10⁻⁶ cm/s | 2.1 | – | – | –
34 | CC(C)n1ccc2nc(Nc3cnn(C4CCN(C)CC4)c3)nc(NC3(C)CC3)c2c1=O | 0.005 µM | 0.21 µM | 3.3 | 32 µL/min/mg | – | – | – | – | –
